# Measured values taken from patent US20240287172A1, “PROTEIN BINDERS TO IRHOM2 EPITOPES” (SCIRHOM GMBH, priority 2019, published 2024).
# Test system: LPS-induced release of endogenous TNFα from human macrophages from healthy donors
# Assay: ELISA-based TNFα release assay, LPS-induced, human macrophages from healthy donors
# Assay type: cell-based
# Conditions: Macrophage, LPS 5 ng/ml, 2 hours, recombinant murine antibodies at 10 μg/ml, Batimastat at 10 μM
# Protocol: To obtain human macrophages, peripheral blood mononuclear cells (PBMCs) from 4 healthy donors were used. Cells from 5 ml human blood were resuspended in 20 ml of DMEM medium (Corning, USA) supplemented with 10% FCS (Atlanta Biological, USA) and Penicillin/Streptomycin (Corning, USA) (DMEM/FCS) and were then incubated on two 10 cm petri dishes (Thermo Fisher, USA) at 37° C., 5% CO2 for 3h. Non-adherent cells were subsequently removed and 6 ml of DMEM/FCS supplemented with 10 ng/ml human MCSF (Peprotech, USA) (DMEM/FCS/MCSF) was added per plate. Both plates were incubated at 37° C., 5% CO2 for 2 days, then 2 ml of DMEM/FCS/MCSF was added to each plate on day 2 and 4. On day 5, all medium was removed and attached cells were washed once with 5 ml PBS (Corning, USA). 2 ml of Accutase (Promocell, USA) solution was added to each plate and incubated at 37° C. for 15 min. 10 ml of DMEM/FCS was added to each plate and detached cells were collected in a 15 ml Falcon tube. Cells were subsequently pelleted in a tabletop centrifuge (Eppendorf, USA) at 1,500 rpm for 5 min. The medium was removed and the cells were resuspended in 2 ml of DMEM/FCS. 10 μl from this cell suspension was manually counted in a hemocytometer (Thermo Fisher, USA). […]
compound,measurement,value
CNC(=O)[C@H](Cc1ccccc1)NC(=O)[C@H](CC(C)C)[C@H](CSc1cccs1)C(=O)NO [Batimastat],inhibition at 10 µM,68.3%
